The values that follow come from publication PMC8252718, “carba Nicotinamide Adenine Dinucleotide Phosphate: Robust Cofactor for Redox Biocatalysis” (Angewandte Chemie (International Ed. in English), 2021).

What all share (assay): activity assay
What all share (type): biochemical

One assay deals with T1, TsER (Thermus scotoductus, UniProt B0JDW3).
T1 construct: gene chrR; details only in supplement

The next assay concerns the target T2, AspRedAm (Aspergillus oryzae, UniProt Q2TW47).
T2 construct: gene AO090010000708; details only in supplement
T2 sequence (Q2TW47 1-295): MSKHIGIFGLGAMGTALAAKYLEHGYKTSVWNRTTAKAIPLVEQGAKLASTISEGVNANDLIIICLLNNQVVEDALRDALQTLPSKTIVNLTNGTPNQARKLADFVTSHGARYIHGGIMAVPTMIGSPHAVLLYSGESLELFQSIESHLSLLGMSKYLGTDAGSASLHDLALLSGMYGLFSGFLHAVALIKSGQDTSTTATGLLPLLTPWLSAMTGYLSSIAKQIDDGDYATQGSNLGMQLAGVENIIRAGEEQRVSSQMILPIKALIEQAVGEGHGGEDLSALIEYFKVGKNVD
To be noted: 100 mM Tris-HCl pH 8.2, 5 mM hexanal, 10 mM amine, 1 mM cofactor, 30 °C.

The next assay concerns the target T3, CHMO (Acinetobacter johnsonii, UniProt P12015).
T3 construct: gene chnB; details only in supplement

T3 sequence (P12015 whole entry): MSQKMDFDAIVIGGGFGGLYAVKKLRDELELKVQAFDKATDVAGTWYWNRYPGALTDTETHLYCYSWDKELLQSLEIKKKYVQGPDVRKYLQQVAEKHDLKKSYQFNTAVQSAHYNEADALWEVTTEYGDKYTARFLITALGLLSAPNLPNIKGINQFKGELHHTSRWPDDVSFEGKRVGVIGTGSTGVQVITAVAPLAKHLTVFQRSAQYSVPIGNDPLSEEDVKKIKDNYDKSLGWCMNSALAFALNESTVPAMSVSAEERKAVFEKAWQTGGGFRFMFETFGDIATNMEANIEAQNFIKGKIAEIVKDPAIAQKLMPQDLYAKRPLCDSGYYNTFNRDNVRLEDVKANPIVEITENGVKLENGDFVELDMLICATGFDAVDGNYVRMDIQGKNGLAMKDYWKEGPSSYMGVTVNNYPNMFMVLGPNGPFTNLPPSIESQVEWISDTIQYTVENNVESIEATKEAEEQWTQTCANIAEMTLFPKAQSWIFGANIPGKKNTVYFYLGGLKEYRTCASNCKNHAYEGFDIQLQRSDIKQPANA

On to `NC(=O)C1=CN([C@@H]2C[C@H](COP(=O)(O)OP(=O)(O)OC[C@H]3O[C@@H](n4cnc5c(N)ncnc54)[C@H](OP(=O)(O)O)[C@@H]3O)[C@@H](O)[C@H]2O)C=CC1` [carba-NADPH], for which the activity assay result on TsER is “enoate reductase (TsER from Thermus scotoductus)”; on AspRedAm, “Both gave comparable results with the natural and carba cofactor”; at CHMO, “two Baeyer‐Villiger‐monoxygenases (CHMO and HAPMO)”.
